Some test systems named below: NCI-H460; HCC 2998; KM12; MCF7; A549; SNB-19; HT-29; MOLT-4; HOP-62; NCI-H522; EKVX; PC-3; SK-MEL-5; MDA-MB-435; UO-31; OVCAR-4; ACHN; HL-60; M14; MDA-N.
What all share (assay): growth of human tumour cells (NCI), 48 h

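These data come from cells grown in 96-well plates and exposed to compound for 48 hours at five concentrations. Here, GI50 denotes the concentration required for 50% inhibition of growth.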 Activity calls are given as the source filed them. Rule as the data show it: active = GI50 up to about 1.1 µM and inactive = higher.

Consider `CC(=O)N(CCCCNC(=O)C(F)(F)F)CCCNC(=O)C(F)(F)F`, for which the GI50 in the experiment on NCI-H460, in the experiment with HCC 2998, in the experiment on KM12, in the experiment on MCF7, in the experiment on A549 and with SNB-19 was > 100 µM (inactive) each time. Also, the GI50 in the experiment on HT-29, in the experiment with MOLT-4, in the experiment with HOP-62, in the experiment with NCI-H522, in the experiment on EKVX and with PC-3 was > 100 µM (inactive) each time. For the same compound, the GI50 in the experiment with SK-MEL-5, with MDA-MB-435, in the experiment on UO-31, with OVCAR-4, with ACHN and in the experiment on HL-60 was > 100 µM (inactive) in each case. The GI50 in the experiment with M14 is > 100 µM (inactive).
Regarding `CC(C)OC1=C(CC2(C)OCCO2)C(=O)C12OCCO2`, the GI50 in the experiment on NCI-H460, in the experiment on KM12, in the experiment on MCF7, with A549, with SNB-19 and in the experiment with HT-29 was > 100 µM (inactive) in each case. The GI50 is > 100 µM (inactive) with MOLT-4; > 100 µM (inactive) with HOP-62; 40.4 µM (inactive) with NCI-H522; > 100 µM (inactive) with EKVX; > 100 µM (inactive) in the experiment on PC-3; > 100 µM (inactive) with SK-MEL-5. The GI50 in the experiment with MDA-MB-435, with UO-31, with OVCAR-4, in the experiment on ACHN, with HL-60 and with M14 was > 100 µM (inactive) in each case.
With `FC1C2=C(SC1(F)F)C1CCC2C1` (stereo unspecified), the GI50 in the experiment on NCI-H460, in the experiment on KM12, in the experiment with MCF7, with A549, with SNB-19 and in the experiment with HT-29 was > 100 µM (inactive) each time. The GI50 in the experiment with MOLT-4, in the experiment on NCI-H522, with EKVX, in the experiment with PC-3, in the experiment with SK-MEL-5 and with MDA-MB-435 was > 100 µM (inactive) throughout. The GI50 in the experiment on UO-31, with OVCAR-4, in the experiment on ACHN, in the experiment on HL-60 and with M14 was > 100 µM (inactive) each time.
With `CCOP(=O)(O)CC1OC(CO)C(O)C1O` (stereo unspecified), the GI50 with NCI-H460, with A549, in the experiment with SNB-19, in the experiment on HT-29, in the experiment on MOLT-4 and in the experiment on HOP-62 was > 100 µM (inactive) in each case. The GI50 in the experiment on MDA-N, with NCI-H522, in the experiment with EKVX, in the experiment on PC-3, in the experiment on SK-MEL-5 and in the experiment with UO-31 was > 100 µM (inactive) each time. For the same compound, the GI50 with ACHN and with M14 was > 100 µM (inactive) throughout.
Consider `CS(=O)(=O)OCCN(CCOS(C)(=O)=O)c1ccc(/C=N/c2cccc(Cl)c2)cc1`, for which the GI50 was 0.269 µM (active) with NCI-H460; 2.7 µM (inactive) in the experiment with HCC 2998; 13.4 µM (inactive) with KM12; 10 µM (inactive) in the experiment with MCF7; 2.64 µM (inactive) in the experiment on A549; 5.46 µM (inactive) with SNB-19. In addition, the GI50 in the experiment with HT-29 was 2.69 µM (inactive); in the experiment with MOLT-4, 0.286 µM (active); in the experiment on HOP-62 it was 7.23 µM (inactive); in the experiment with NCI-H522 it was 0.724 µM (active); in the experiment with EKVX, 7.36 µM (inactive); in the experiment with PC-3, 24.5 µM (inactive). For the same compound, the GI50 was 6.43 µM (inactive) in the experiment with SK-MEL-5; 12.2 µM (inactive) in the experiment on MDA-MB-435; 1.6 µM (inactive) in the experiment with UO-31; 13.5 µM (inactive) in the experiment on OVCAR-4; 0.181 µM (active) in the experiment on ACHN; 2.45 µM (inactive) in the experiment on HL-60. Further, in the experiment with M14, the GI50 was 14.5 µM (inactive).
Take `N#CC1CC2(C(=O)C1=O)c1ccccc1-c1ccccc12` (stereo unspecified): the GI50 with NCI-H460, with HCC 2998, in the experiment on KM12, in the experiment with A549, in the experiment on SNB-19 and in the experiment on HT-29 was > 100 µM (inactive) each time. Moreover, the GI50 in the experiment on MOLT-4, with HOP-62, with NCI-H522, with EKVX, with SK-MEL-5 and in the experiment with UO-31 was > 100 µM (inactive) each time. Also, the GI50 in the experiment on OVCAR-4, in the experiment with ACHN, in the experiment on HL-60 and in the experiment with M14 was > 100 µM (inactive) throughout.
With `CC(=O)Oc1ccccc1C(=O)C1c2cccc(O)c2C(=O)c2c(O)cccc21`, the GI50 was 0.433 µM (active) in the experiment on NCI-H460; 0.581 µM (active) with HCC 2998; 0.421 µM (active) with KM12; 0.776 µM (active) in the experiment on A549; 0.416 µM (active) in the experiment on SNB-19; 2.59 µM (inactive) in the experiment with HT-29. Also, the GI50 is 1.46 µM (inactive) in the experiment on MOLT-4; 1.44 µM (inactive) in the experiment on HOP-62; 0.479 µM (active) in the experiment with NCI-H522; 2.18 µM (inactive) in the experiment with EKVX; 1.05 µM (active) with SK-MEL-5; 0.741 µM (active) in the experiment on UO-31. Further, the GI50 is 0.995 µM (active) in the experiment with OVCAR-4, 0.771 µM (active) with ACHN, 0.222 µM (active) in the experiment with HL-60 and 1.84 µM (inactive) in the experiment on M14.
With `CC(=O)O[C@@H]1CC[C@@]2(C)C(CC[C@H]3[C@@H]4CC[C@H]([C@H](C)CCc5nc6cc(C)ccc6[nH]5)[C@@]4(C)CC[C@@H]32)C1` (stereo partly specified), the GI50 in the experiment on HCC 2998 was 71.3 µM (inactive); with KM12, 12.7 µM (inactive); in the experiment on MCF7 it was 38.4 µM (inactive); with A549, 43.4 µM (inactive); with SNB-19, > 100 µM (inactive); with HT-29, 12.4 µM (inactive). The GI50 with MOLT-4 is 28.1 µM (inactive); in the experiment with HOP-62, 13.1 µM (inactive); in the experiment on NCI-H522, 16.7 µM (inactive); with EKVX, 9.64 µM (inactive); in the experiment on PC-3, 9.53 µM (inactive); in the experiment with SK-MEL-5 it was 25.9 µM (inactive). In addition, the GI50 with MDA-MB-435 is > 100 µM (inactive); in the experiment on UO-31, 6.38 µM (inactive); in the experiment with OVCAR-4, 9.77 µM (inactive); in the experiment on ACHN it was 99.3 µM (inactive); in the experiment on M14, 16.1 µM (inactive).
